Data on seven compounds can be found in ChEMBL document CHEMBL1201862, “PubChem BioAssay data set” (2004).

Common to all, as to assay: NCI tumour cell line growth inhibition, 48 h
The subject of assay [1] is SW-620.
In assay [2] the test system is CAKI-1.
Assay [3] deals with SK-MEL-28.
Assay [4] deals with SR.
Assay [5] has as its system M14.
Assay [6] concerns HCC 2998.
The subject of assay [7] is A549.
For assay [8], the system named is HT-29.
The subject of assay [9] is IGROV-1.
The test system of assay [10] is SF-268.
The subject of assay [11] is SNB-75.
The test system of assay [12] is Malme-3M.
Assay [13] has as its system HOP-62.
The subject of assay [14] is RXF 393.
Assay [15] concerns EKVX.
Assay [16] concerns OVCAR-5.
In assay [17] the test system is T47D.
Assay [18] relates to SNB-19.
In assay [19] the test system is SK-MEL-5.
Assay [20] has as its system MDA-MB-231.

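A five-concentration, 48-hour dose response in 96-well plates underlies each endpoint, interpolated linearly between surrounding concentrations. The concentration for 50% growth inhibition is given as GI50.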 Activity calls are given as the source filed them. Rule as the data show it: active = GI50 up to about 1.1 µM and inactive = higher.

Turning to `COc1ccc2/c(=C/c3ccc(N(C)C)cc3)c3cc(-c4ccccc4)[n+](C)n3c2c1`, the GI50 was 0.15 µM (active) in assay [1]; 1.2 µM (inactive) in assay [2]; 0.164 µM (active) in assay [3]; 0.092 µM (active) in [4]; 0.139 µM (active) in assay [5]; 0.115 µM (active) in assay [6]. For the same compound, the GI50 in assay [7] was 0.261 µM (active); in [8], 0.104 µM (active); in assay [9], 0.112 µM (active); in [10], 0.292 µM (active); in assay [11], 0.285 µM (active); in assay [12] it was 0.191 µM (active). The GI50 is 0.345 µM (active) in assay [13]; 0.59 µM (active) in assay [14]; 0.817 µM (active) in [15]; 0.52 µM (active) in assay [16]; 0.0805 µM (active) in assay [17]; 0.134 µM (active) in [18]. Also, the GI50 in assay [19] is 0.0392 µM (active); in assay [20], 0.31 µM (active).
With `C[n+]1cc2cc(O)c(O)cc2c2ccc3cc(O)c(O)cc3c21.c1ccncc1`, the GI50 in assay [1] is 3.51 µM (inactive); in [2] it was 3.05 µM (inactive); in [3], 4.66 µM (inactive); in [4] it was 2.09 µM (inactive); in [5], 2.18 µM (inactive); in assay [6], 3.92 µM (inactive). The GI50 in [7] was 4.05 µM (inactive); in assay [8] it was 3.3 µM (inactive); in [9], 2.02 µM (inactive); in assay [10] it was 2.18 µM (inactive); in assay [11], 3.31 µM (inactive); in assay [12], 2.59 µM (inactive). Further, the GI50 in [13] was 2.12 µM (inactive); in assay [14] it was 2.07 µM (inactive); in assay [15] it was 3.37 µM (inactive); in [16], 6.24 µM (inactive); in assay [17], 5.86 µM (inactive); in assay [18] it was 1.49 µM (inactive). The GI50 in [19] is 3.24 µM (inactive); in assay [20] it was 2.79 µM (inactive).
Consider `NC1CSc2ccccc2NC1=O` (stereo not given), for which the GI50 in assay [1], in [2], in assay [3], in assay [4], in [5] and in [6] was > 100 µM (inactive) each time. Also, the GI50 in [7], in assay [8], in assay [9], in assay [10], in assay [11] and in assay [12] was > 100 µM (inactive) each time. Besides, the GI50 in assay [13], in assay [14], in [15], in [16], in [17] and in assay [18] was > 100 µM (inactive) in each case. In addition, the GI50 in [19] and in assay [20] was > 100 µM (inactive) each time.
`CCOc1ccc(C2c3[nH]c4ccccc4c3CCN2C(=O)c2cccs2)cc1` (stereo not given): the GI50 in [1] is 21.1 µM (inactive); in assay [2], 9.14 µM (inactive); in [3] it was > 100 µM (inactive); in assay [4], 2.62 µM (inactive); in assay [5], 37.7 µM (inactive); in assay [6], 2.08 µM (inactive). Also, the GI50 in assay [7] is 7.03 µM (inactive); in assay [8], 5.98 µM (inactive); in assay [9], 10.2 µM (inactive); in assay [10], 52.4 µM (inactive); in [11] it was 35.6 µM (inactive); in assay [12], 88.5 µM (inactive). Besides, the GI50 in [13] is 4.67 µM (inactive); in assay [14], 7.18 µM (inactive); in assay [15], 7.35 µM (inactive); in assay [16] it was > 100 µM (inactive); in assay [17] it was 5.9 µM (inactive); in [18] it was 23.8 µM (inactive). In addition, the figures for the GI50 in [19] and in assay [20] were 5.75 µM (inactive) and 9.33 µM (inactive), respectively.
As for `CCOC(=O)C1=C(C)NC(=S)NC1c1cccc(O)c1` (stereo not given) [MONASTROL], the GI50 was 44.3 µM (inactive) in assay [1]; 63.8 µM (inactive) in assay [2]; 81.5 µM (inactive) in [3]; 31.5 µM (inactive) in assay [4]; 23.5 µM (inactive) in [5]; 40 µM (inactive) in assay [6]. Moreover, the GI50 in [7] is 52.1 µM (inactive); in assay [8], > 86.3 µM (inactive); in assay [9], 51.1 µM (inactive); in [10] it was 56.5 µM (inactive); in assay [11] it was 37.2 µM (inactive); in [12], 60.3 µM (inactive). Also, the GI50 is 68.1 µM (inactive) in assay [13]; 25.5 µM (inactive) in assay [14]; 62.7 µM (inactive) in [15]; 76.6 µM (inactive) in assay [16]; 34.9 µM (inactive) in assay [17]; 76.4 µM (inactive) in [18]. The GI50 is 36.6 µM (inactive) in assay [19] and 38.6 µM (inactive) in assay [20].
On to `CC(=O)OC1CC2CC(=O)CC1N2C` (stereo not given), for which the GI50 in assay [1], in assay [2], in assay [3], in [4], in assay [5] and in assay [6] was > 100 µM (inactive) in each case. For the same compound, the GI50 in [7], in [8], in [9], in [10], in [11] and in assay [12] was > 100 µM (inactive) throughout. For the same compound, the GI50 in assay [13], in [14], in assay [15], in assay [16], in assay [17] and in assay [18] was > 100 µM (inactive) each time. For the same compound, the GI50 in [19] and in [20] was > 100 µM (inactive) in each case.
Consider `C[C@H](CCC(=O)NCC(=O)O)[C@H]1CC[C@H]2[C@@H]3[C@H](O)C[C@@H]4C[C@H](O)CC[C@]4(C)[C@H]3CC[C@]12C`, for which the GI50 in assay [1], in [2], in assay [3], in assay [4], in [5] and in assay [6] was > 100 µM (inactive) throughout. In addition, the GI50 in assay [7] was > 100 µM (inactive); in assay [8], > 100 µM (inactive); in [9] it was > 100 µM (inactive); in [10] it was > 100 µM (inactive); in [11] it was 0.75 µM (active); in assay [12] it was 71.6 µM (inactive). Also, the GI50 in [13], in assay [14], in assay [15], in assay [16], in assay [17] and in [18] was > 100 µM (inactive) in each case. Further, the GI50 in [19] and in [20] was > 100 µM (inactive) each time.
